Experimental data from patent US10065990B2, “Cyclic peptide compound, and preparation method, pharmaceutical composition and use thereof” (HANGZHOU GUANYU BIO-MEDICAL CO., LTD, priority 2013, dated 2018).
pIC50: −log10 of the molar value. Like-named read-outs stand apart in the source and are kept apart here.

Assays:
HDAC7 = target: T1, HDAC7 (Homo sapiens, UniProt Q8WUI4); assay: HDAC biochemical activity measurement (fluorescent substrate deacetylation);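 further: fluorogenic deacetylation assay using acetyl-lysine substrate at 20 µM, enzyme and compound incubated 30 min at 37 °C, then developer added, fluorescence read at 360/460 nm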; conditions: HDAC7; 37° C. 30 minutes
T1 sequence (Q8WUI4 1-952): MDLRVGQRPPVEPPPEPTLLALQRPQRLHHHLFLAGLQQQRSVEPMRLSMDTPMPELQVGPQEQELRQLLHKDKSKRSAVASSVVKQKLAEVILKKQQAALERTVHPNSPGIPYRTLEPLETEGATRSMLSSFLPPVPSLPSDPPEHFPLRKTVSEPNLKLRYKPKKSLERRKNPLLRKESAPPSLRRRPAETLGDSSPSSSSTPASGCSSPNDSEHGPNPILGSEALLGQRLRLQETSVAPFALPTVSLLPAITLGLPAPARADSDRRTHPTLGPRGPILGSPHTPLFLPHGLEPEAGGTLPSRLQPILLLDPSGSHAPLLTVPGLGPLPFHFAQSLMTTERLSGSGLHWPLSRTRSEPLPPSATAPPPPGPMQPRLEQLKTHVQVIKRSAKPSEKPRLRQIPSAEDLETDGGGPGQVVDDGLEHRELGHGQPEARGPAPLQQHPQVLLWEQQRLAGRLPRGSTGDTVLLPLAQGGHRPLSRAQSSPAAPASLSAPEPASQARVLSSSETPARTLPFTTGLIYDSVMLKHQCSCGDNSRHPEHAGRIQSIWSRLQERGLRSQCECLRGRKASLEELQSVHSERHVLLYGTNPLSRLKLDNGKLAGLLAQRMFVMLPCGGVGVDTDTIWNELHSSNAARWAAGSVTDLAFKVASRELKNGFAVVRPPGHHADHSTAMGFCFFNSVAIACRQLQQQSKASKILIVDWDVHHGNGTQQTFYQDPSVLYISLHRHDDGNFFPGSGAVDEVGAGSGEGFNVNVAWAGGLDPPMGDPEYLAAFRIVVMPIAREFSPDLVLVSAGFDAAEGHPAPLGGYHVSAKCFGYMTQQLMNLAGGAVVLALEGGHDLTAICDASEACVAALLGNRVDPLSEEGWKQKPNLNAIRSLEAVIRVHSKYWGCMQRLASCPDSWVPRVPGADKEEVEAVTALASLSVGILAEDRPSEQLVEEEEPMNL

HDAC2 = HDAC2 (Homo sapiens, UniProt Q92769); assay: as above; conditions: 37° C. 30 minutes;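 further: HDAC2 enzyme with an acetyl-lysine fluorescent substrate, then developer added, fluorescence read at excitation 360 nm and emission 460 nm, inhibition measured across several compound concentrations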
[1] = system: MDA-MB-231 (breast cancer cells); assay: MTT cancer cell growth inhibition; assay type: cell-based; conditions: Homo sapiens, MDA-MB-231, 72 h, read-out: GI50 MDA-MB-231, MTT, 72 hours incubation, MDA-MB-231 cells
Procedure, shortened: (§1)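 Following overnight attachment of 1500 cells per well, each line was exposed to test drug (final 10^−5 to 10^−10 M) for 72 h in a humidified 37° C., 5% CO2 incubator. Four hours with MTT, DMSO dissolution of formazan, and a 570 nm reading yielded viability data used for GI50.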

[2] = system: SGC-7901 (human gastric cancer cells); assay: MTT cancer cell growth inhibition; assay type: cell-based; conditions: Homo sapiens, SGC-7901, 72 h, MTT, 72 hours incubation, SGC-7901 cells; read-out: GI50 SGC-7901
Procedure, shortened: as §1

[3] = system: A549 (human lung cancer cells); assay: MTT cancer cell growth inhibition; assay type: cell-based; conditions: Homo sapiens, A549, 72 h, MTT, 72 hours incubation; read-out: GI50 A54
Procedure, shortened: as §1

[4] = system: MOLT-4 (human acute lymphoblastic leukemia cells); assay: MTT cancer cell growth inhibition; assay type: cell-based; conditions: Homo sapiens, MOLT-4, 72 h, MTT, 72 hours incubation; read-out: GI50 Mol
Procedure, shortened: as §1

[5] = system: lncap (prostate cancer cells); assay: MTT cancer cell growth inhibition; assay type: cell-based; conditions: Homo sapiens, LNCaP, 72 h, MTT
Procedure, shortened: as §1

[6] = system: Huh-7 (human hepatoma cells); assay: MTT cancer cell growth inhibition; assay type: cell-based; conditions: Homo sapiens, Huh-7, 72 h, MTT, 72 hours incubation, Huh-7 cells; read-out: GI50 Huh-7
Procedure, shortened: as §1

[7] = system: MCF-7 (human breast cancer cells); assay: MTT cancer cell growth inhibition; assay type: cell-based; conditions: Homo sapiens, MCF7, 72 h
Procedure, shortened: as §1

[8] = system: KBM5-T315I (human chronic myelogenous leukemia); assay: MTT cancer cell growth inhibition; assay type: cell-based; conditions: Homo sapiens, 72 h, MTT, 72 hours incubation, KBM5-T315I cells; read-out: GI50 KBM5-T315I
Procedure, shortened: as §1

HDAC1 = HDAC1 (Homo sapiens, UniProt Q13547); assay: HDAC biochemical activity measurement (fluorescent substrate deacetylation);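 further: fluorogenic acetyl-lysine substrate (20 µM) deacetylated by HDAC1, then developer releases fluorophore read at 360 nm excitation and 460 nm emission, inhibitor incubated 30 min at 37 °C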
HDAC11 = target: T2, HDAC11 (Homo sapiens, UniProt Q96DB2); assay: as above;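 further: HDAC11 enzyme acting on an acetyl-lysine fluorogenic substrate, then a developer frees the fluorophore, read at excitation 360 nm and emission 460 nm, IC50 over a compound dilution series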
T2 sequence (Q96DB2 1-347): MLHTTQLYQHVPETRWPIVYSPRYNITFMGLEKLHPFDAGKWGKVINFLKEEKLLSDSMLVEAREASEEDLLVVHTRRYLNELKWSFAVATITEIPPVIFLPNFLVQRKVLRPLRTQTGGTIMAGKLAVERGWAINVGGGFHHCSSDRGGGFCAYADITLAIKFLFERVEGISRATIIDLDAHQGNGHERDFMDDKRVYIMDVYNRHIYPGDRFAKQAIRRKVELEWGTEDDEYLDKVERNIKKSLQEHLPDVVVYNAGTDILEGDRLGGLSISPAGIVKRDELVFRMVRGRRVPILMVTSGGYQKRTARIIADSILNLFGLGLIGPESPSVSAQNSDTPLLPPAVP

[9] = system: PANC-1 (Pac-1, human pancreatic cancer cells); assay: MTT cancer cell growth inhibition; assay type: cell-based; conditions: MTT
Procedure, shortened: as §1

[10] = 72 hours incubation, read-out: GI50 lnca
[11] = 72 hours incubation, read-out: GI50 MCF
[12] = HDAC1, 37° C. 30 minutes, read-out: IC50 HDAC1
[13] = Homo sapiens, PANC-1, 72 h, 72 hours incubation, read-out: GI50 PAN
[14] = Table 3, read-out: IC50 HDAC1, D (non-substituent)
[15] = read-out: IC50 HDAC11, HDAC11, 37° C. 30 minutes

Sequence of HDAC2 (Q92769 whole entry, species assumed): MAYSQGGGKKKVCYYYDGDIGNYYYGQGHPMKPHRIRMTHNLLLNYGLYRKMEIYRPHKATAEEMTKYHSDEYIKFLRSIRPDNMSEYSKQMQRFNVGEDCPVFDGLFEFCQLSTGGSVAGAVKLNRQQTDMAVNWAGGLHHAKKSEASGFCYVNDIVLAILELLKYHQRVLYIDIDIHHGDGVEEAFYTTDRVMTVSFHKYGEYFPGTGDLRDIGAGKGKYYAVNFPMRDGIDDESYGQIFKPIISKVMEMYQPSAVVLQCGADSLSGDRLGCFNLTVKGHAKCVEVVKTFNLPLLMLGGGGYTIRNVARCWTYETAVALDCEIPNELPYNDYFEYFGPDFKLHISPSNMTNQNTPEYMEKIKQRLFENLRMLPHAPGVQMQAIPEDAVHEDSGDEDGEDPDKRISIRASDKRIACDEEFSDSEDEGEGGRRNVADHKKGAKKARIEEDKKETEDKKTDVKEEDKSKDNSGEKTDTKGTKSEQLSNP
Sequence of HDAC1 (Q13547 whole entry, species assumed): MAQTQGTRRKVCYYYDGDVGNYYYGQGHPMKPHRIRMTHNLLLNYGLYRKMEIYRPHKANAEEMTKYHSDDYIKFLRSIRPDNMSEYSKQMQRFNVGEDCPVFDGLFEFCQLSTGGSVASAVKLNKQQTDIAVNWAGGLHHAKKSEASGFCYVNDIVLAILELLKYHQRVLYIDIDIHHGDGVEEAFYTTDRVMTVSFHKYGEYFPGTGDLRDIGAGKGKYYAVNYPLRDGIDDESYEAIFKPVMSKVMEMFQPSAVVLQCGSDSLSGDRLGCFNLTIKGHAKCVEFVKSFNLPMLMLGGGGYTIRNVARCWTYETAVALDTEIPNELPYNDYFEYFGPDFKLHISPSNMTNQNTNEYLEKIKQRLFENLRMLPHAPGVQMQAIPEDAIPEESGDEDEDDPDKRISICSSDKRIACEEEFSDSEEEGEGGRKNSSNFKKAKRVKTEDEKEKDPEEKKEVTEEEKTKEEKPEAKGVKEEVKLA

C/C=C1\NC(=O)c2cccc(n2)CCNC(=O)C[C@@H](/C=C/CCS)OC(=O)[C@H](C(C)C)NC1=O [Compound 146]
IC50 HDAC7 (HDAC7): no activity | pIC50 (HDAC2): 7.47 | GI50 [1]: 56 nM | GI50 [2]: 35 nM | GI50 [3]: 30 nM | GI50 [4]: 80 nM | GI50 [5, 10]: 40 nM | GI50 [6]: 65 nM | GI50 [7, 11]: 50 nM | GI50 [8]: 23 nM | pIC50 (HDAC1; [12]): 7.14 | pIC50 (HDAC11): 7.01

C/C=C1\NC(=O)c2cccc(n2)CNC(=O)C[C@@H](/C=C/CCSC(C)=O)OC(=O)[C@H](C)NC1=O [Compound 12]
IC50 HDAC7 (HDAC7): no activity | pIC50 (HDAC2): 7.27 | GI50 [1]: 84 nM | GI50 [2]: 36 nM | GI50 [3]: 70 nM | GI50 [9, 13]: 80 nM | GI50 [6]: 86 nM | GI50 [7, 11]: 60 nM | GI50 [8]: 31 nM | pIC50 (HDAC1; [12]): 7.09 | pIC50 (HDAC1; [14]): 7.09 | pIC50 (HDAC11; [15]): 7.04

C/C=C1\NC(=O)c2cc(F)cc(n2)CNC(=O)C[C@@H](/C=C/CCSC(=O)CCC)OC(=O)[C@H](C(C)C)NC1=O [Compound 43]
IC50 HDAC7 (HDAC7): no activity | pIC50 (HDAC2): 7.29 | GI50 [1]: 36 nM | GI50 [2]: 52 nM | GI50 [3]: 50 nM | GI50 [4]: 30 nM | GI50 [5, 10]: 30 nM | GI50 [6]: 36 nM | GI50 [7, 11]: 50 nM | GI50 [8]: 54 nM | pIC50 (HDAC1; [12]): 7.57 | pIC50 (HDAC1; Table 3, column C, read-out: IC50 HDAC1, C (six-membered ring with substituents)): 7.57 | pIC50 (HDAC11; [15]): 7.03

C/C=C1\NC(=O)c2cccc(n2)CNC(=O)C[C@@H](/C=C/CCSC(=O)CC)OC(=O)[C@H](C(C)C)NC1=O [Compound 6]
IC50 HDAC7 (HDAC7): no activity | pIC50 (HDAC2): 7.23 | GI50 [1]: 84 nM | GI50 [2]: 51 nM | GI50 [3]: 60 nM | GI50 [9, 13]: 60 nM | GI50 [6]: 58 nM | GI50 [7, 11]: 60 nM | GI50 [8]: 41 nM | pIC50 (HDAC1; [12]): 7.12 | pIC50 (HDAC1; [14]): 7.12 | pIC50 (HDAC11; [15]): 6.87

C/C=C1\NC(=O)c2cccc(n2)CNC(=O)C[C@@H](/C=C/CCSC=O)OC(=O)[C@H](C(C)C)NC1=O [Compound 8]
IC50 HDAC7 (HDAC7): no activity | pIC50 (HDAC2): 6.79 | GI50 [1]: 93 nM | GI50 [2]: 43 nM | GI50 [3]: 80 nM | GI50 [9, 13]: 80 nM | GI50 [6]: 61 nM | GI50 [7, 11]: 80 nM | GI50 [8]: 63 nM | pIC50 (HDAC1; [12]): 6.82 | pIC50 (HDAC1; [14]): 6.82 | pIC50 (HDAC11): 7.01

C/C=C1\NC(=O)c2cccc(n2)CNC(=O)C[C@@H](/C=C/CCSC(=O)CCCCCCC)OC(=O)[C@H](C(C)C)NC1=O [Compound 1]
IC50 HDAC7 (HDAC7): no activity | pIC50 (HDAC2): 7.66 | GI50 [1]: 95 nM | GI50 [2]: 53 nM | GI50 [3]: 10 nM | GI50 [9, 13]: 20 nM | GI50 ([9]; 72 hours, present invention, read-out: GI50 PANC-1, a): 320 nM | GI50 ([5]; 72 hours, present invention, read-out: GI50 lncap, a): 9 nM | GI50 [6]: 33 nM | GI50 [7, 11]: 30 nM | GI50 ([7]; 72 hours, present invention, read-out: GI50 MCF7, a): 30 nM | GI50 [8]: 46 nM | pIC50 (HDAC1; [12]): 7.39 | pIC50 (HDAC1; Table 2, read-out: IC50 HDAC1, a (compounds of the present invention)): > 7.30 | pIC50 (HDAC1; [14]): 7.39 | pIC50 (HDAC11; [15]): 6.42

C/C=C1\NC(=O)c2cccc(n2)CNC(=O)C[C@@H](/C=C/CCSC(=O)CCCC)OC(=O)[C@H](C(C)C)NC1=O [Compound 4]
IC50 HDAC7 (HDAC7): no activity | pIC50 (HDAC2): 6.60 | GI50 [1]: 86 nM | GI50 [2]: 34 nM | GI50 [3]: 50 nM | GI50 [9, 13]: 60 nM | GI50 [6]: 86 nM | GI50 [7, 11]: 40 nM | GI50 [8]: 22 nM | pIC50 (HDAC1; [12]): 6.74 | pIC50 (HDAC1; [14]): 6.74 | pIC50 (HDAC11; [15]): 6.70

C/C=C1\NC(=O)c2cccc(n2)CNC(=O)C[C@@H](/C=C/CCSC(C)=O)OC(=O)[C@H](CC)NC1=O [Compound 10]
IC50 HDAC7 (HDAC7): no activity | pIC50 (HDAC2): 7.17 | GI50 [1]: 98 nM | GI50 [2]: 23 nM | GI50 [3]: 60 nM | GI50 [9, 13]: 80 nM | GI50 [6]: 51 nM | GI50 [7, 11]: 60 nM | GI50 [8]: 24 nM | pIC50 (HDAC1; [12]): 7.04 | pIC50 (HDAC1; [14]): 7.04 | pIC50 (HDAC11): 6.99

C/C=C1\NC(=O)c2cccc(n2)CNC(=O)C[C@@H](/C=C/CCSC(=O)CCC)OC(=O)[C@H](C(C)C)NC1=O [Compound 5]
IC50 HDAC7 (HDAC7): no activity | pIC50 (HDAC2): 7.28 | GI50 [1]: 82 nM | GI50 [2]: 43 nM | GI50 [3]: 50 nM | GI50 [9, 13]: 60 nM | GI50 [6]: 72 nM | GI50 [7, 11]: 40 nM | GI50 [8]: 33 nM | pIC50 (HDAC1; [12]): 7.13 | pIC50 (HDAC1; [14]): 7.13 | pIC50 (HDAC11; [15]): 6.95
